Here are results for six compounds from ChEMBL document CHEMBL1143738, “Inhibition of S. aureus alpha-hemolysin and B. anthracis lethal toxin by beta-cyclodextrin derivatives” (Bioorg Med Chem, 2007).

Active and inactive are the calls of the source. The rule behind the calls is not given here. A value given as a limit tells only on which side of the number the result lay.

The test system of data set [1] is Erythrocyte. The data set can be described thus: Inhibition of Staphylococcus aureus alpha-hemolysin-induced cytotoxicity against rabbit RBC. The format is functional, cell-based. To be noted: Oryctolagus cuniculus.
In data set [2] the test system is RAW264.7. In words: Inhibition of Bacillus anthracis lethal toxin-induced cytotoxicity in mouse RAW264.7 cells. The class given is functional, cell-based.
The subject of data set [3] is RAW264.7. In words: Toxicity against mouse RAW264.7 cells upto 100 uM. The class given is cell-based.
The nature of data set [4]: Toxicity against mouse RAW264.7 cells. The format is cell-based.
Data set [5] addresses Protective antigen (Bacillus anthracis) (UniProt P13423). The data set can be described thus: Inhibition of Bacillus anthracis protective antigen 63 reconstituted in diphytanoylphosphatidylcholine lipid membranes assessed as inhibition of channel conductance at 5 uM.
Data set [6] deals with T1, Alpha-hemolysin (Staphylococcus aureus) (UniProt P09616).
T1 sequence (whole entry): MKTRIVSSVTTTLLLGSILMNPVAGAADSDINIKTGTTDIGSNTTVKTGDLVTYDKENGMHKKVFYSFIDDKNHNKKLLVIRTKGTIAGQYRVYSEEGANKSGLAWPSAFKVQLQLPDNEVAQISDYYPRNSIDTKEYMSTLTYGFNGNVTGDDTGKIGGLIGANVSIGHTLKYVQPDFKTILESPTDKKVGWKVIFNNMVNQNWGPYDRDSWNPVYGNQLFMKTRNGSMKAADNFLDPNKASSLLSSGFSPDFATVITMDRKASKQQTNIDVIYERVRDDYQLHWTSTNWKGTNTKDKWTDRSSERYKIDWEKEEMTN
In words: Inhibition of Staphylococcus aureus alpha-hemolysin reconstituted in diphytanoylphosphatidylcholine lipid membranes assessed as inhibition of channel conductance at 2 uM.

The test system of data set [7] is RAW264.7. The data set can be described thus: Protection against Bacillus anthracis lethal toxin-induced cell death in mouse RAW264.7cells assessed as cell viability in MTS colorimetric assay. The class given is functional, cell-based.
The test system of data set [8] is Erythrocyte. In words: Protection against Staphylococcus aureus alpha-hemolysin-induced cell death in rabbit RBC assessed as cell viability in MTS colorimetric assay. The class given is functional, cell-based. As to conditions: Oryctolagus cuniculus. For orientation: Tetrazolium dyes change colour on reduction, which living cells bring about.

Sequence of Protective antigen (Bacillus anthracis) (P13423 whole entry): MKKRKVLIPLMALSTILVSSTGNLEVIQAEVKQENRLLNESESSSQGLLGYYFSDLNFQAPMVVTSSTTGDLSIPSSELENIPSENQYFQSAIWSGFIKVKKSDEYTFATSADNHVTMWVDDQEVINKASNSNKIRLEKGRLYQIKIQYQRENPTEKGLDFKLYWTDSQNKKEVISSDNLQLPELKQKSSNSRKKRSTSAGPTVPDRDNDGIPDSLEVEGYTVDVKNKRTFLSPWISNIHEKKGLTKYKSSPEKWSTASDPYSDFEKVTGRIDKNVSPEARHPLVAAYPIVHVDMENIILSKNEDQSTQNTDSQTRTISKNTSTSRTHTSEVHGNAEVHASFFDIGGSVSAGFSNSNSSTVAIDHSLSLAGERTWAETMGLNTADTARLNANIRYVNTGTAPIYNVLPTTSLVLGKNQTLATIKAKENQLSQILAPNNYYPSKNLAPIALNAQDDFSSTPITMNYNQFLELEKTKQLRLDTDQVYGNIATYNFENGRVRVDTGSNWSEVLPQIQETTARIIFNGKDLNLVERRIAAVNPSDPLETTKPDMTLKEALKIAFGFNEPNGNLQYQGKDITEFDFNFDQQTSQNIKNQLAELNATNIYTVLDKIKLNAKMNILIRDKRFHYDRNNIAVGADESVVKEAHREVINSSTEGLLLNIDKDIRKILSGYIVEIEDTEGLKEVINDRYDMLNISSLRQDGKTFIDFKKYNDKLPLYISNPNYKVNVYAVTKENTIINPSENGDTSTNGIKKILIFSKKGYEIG

Turning to `Cl.Cl.Cl.Cl.Cl.Cl.Cl.N[C@@H](CO)CC(=O)NC[C@H]1O[C@@H]2O[C@H]3[C@H](O)[C@@H](O)[C@@H](O[C@H]4[C@H](O)[C@@H](O)[C@@H](O[C@H]5[C@H](O)[C@@H](O)[C@@H](O[C@H]6[C@H](O)[C@@H](O)[C@@H](O[C@H]7[C@H](O)[C@@H](O)[C@@H](O[C@H]8[C@H](O)[C@@H](O)[C@@H](O[C@H]1[C@H](O)[C@H]2O)O[C@@H]8CNC(O)[C@@H](N)CO)O[C@@H]7CNC(=O)[C@@H](N)CO)O[C@@H]6CNC(=O)[C@@H](N)CO)O[C@@H]5CNC(=O)[C@@H](N)CO)O[C@@H]4CNC(=O)[C@@H](N)CO)O[C@@H]3CNC(=O)[C@@H](N)CO` (stereo partly drawn), the IC50 (as a rule, the midpoint of a concentration-inhibition curve) was above 25 µM in data set [1], above 25 µM in data set [2] and 0.6 µM in data set [4]. For the same compound, the Activity entry in data set [3] is given as “Non-toxic”.
In the case of `Cl.Cl.Cl.Cl.Cl.Cl.Cl.N[C@@H](CS)CC(=O)NC[C@H]1O[C@@H]2O[C@H]3[C@H](O)[C@@H](O)[C@@H](O[C@H]4[C@H](O)[C@@H](O)[C@@H](O[C@H]5[C@H](O)[C@@H](O)[C@@H](O[C@H]6[C@H](O)[C@@H](O)[C@@H](O[C@H]7[C@H](O)[C@@H](O)[C@@H](O[C@H]8[C@H](O)[C@@H](O)[C@@H](O[C@H]1[C@H](O)[C@H]2O)O[C@@H]8CNC(O)[C@@H](N)CS)O[C@@H]7CNC(=O)[C@@H](N)CS)O[C@@H]6CNC(=O)[C@@H](N)CS)O[C@@H]5CNC(=O)[C@@H](N)CS)O[C@@H]4CNC(=O)[C@@H](N)CS)O[C@@H]3CNC(=O)[C@@H](N)CS` (stereo partly drawn), the IC50 was above 25 µM in data set [1], above 25 µM in data set [2] and 0.6 µM in data set [4]. Also, the Activity result in data set [3] is “Non-toxic”.
`N[C@@H](COCc1ccccc1)CC(=O)NC[C@H]1O[C@@H]2O[C@H]3[C@H](O)[C@@H](O)[C@@H](O[C@H]4[C@H](O)[C@@H](O)[C@@H](O[C@H]5[C@H](O)[C@@H](O)[C@@H](O[C@H]6[C@H](O)[C@@H](O)[C@@H](O[C@H]7[C@H](O)[C@@H](O)[C@@H](O[C@H]8[C@H](O)[C@@H](O)[C@@H](O[C@H]1[C@H](O)[C@H]2O)O[C@@H]8CNC(O)[C@@H](N)COCc1ccccc1)O[C@@H]7CNC(=O)[C@@H](N)COCc1ccccc1)O[C@@H]6CNC(=O)[C@@H](N)COCc1ccccc1)O[C@@H]5CNC(=O)[C@@H](N)COCc1ccccc1)O[C@@H]4CNC(=O)[C@@H](N)COCc1ccccc1)O[C@@H]3CNC(=O)[C@@H](N)COCc1ccccc1.O=C(O)C(F)(F)F.O=C(O)C(F)(F)F.O=C(O)C(F)(F)F.O=C(O)C(F)(F)F.O=C(O)C(F)(F)F.O=C(O)C(F)(F)F.O=C(O)C(F)(F)F` (stereo partly drawn): the IC50 was 6.1 µM in data set [1], above 25 µM in data set [2] and 0.6 µM in data set [4]. In addition, the Activity result in data set [3] was “Non-toxic”.
Regarding `Cl.Cl.Cl.Cl.Cl.Cl.Cl.Cl.Cl.Cl.Cl.Cl.Cl.Cl.NCCC[C@H](N)CC(=O)NC[C@H]1O[C@@H]2O[C@H]3[C@H](O)[C@@H](O)[C@@H](O[C@H]4[C@H](O)[C@@H](O)[C@@H](O[C@H]5[C@H](O)[C@@H](O)[C@@H](O[C@H]6[C@H](O)[C@@H](O)[C@@H](O[C@H]7[C@H](O)[C@@H](O)[C@@H](O[C@H]8[C@H](O)[C@@H](O)[C@@H](O[C@H]1[C@H](O)[C@H]2O)O[C@@H]8CNC(O)[C@@H](N)CCCN)O[C@@H]7CNC(=O)[C@@H](N)CCCN)O[C@@H]6CNC(=O)[C@@H](N)CCCN)O[C@@H]5CNC(=O)[C@@H](N)CCCN)O[C@@H]4CNC(=O)[C@@H](N)CCCN)O[C@@H]3CNC(=O)[C@@H](N)CCCN` (stereo partly drawn), the values for the IC50 in data set [1], in data set [2] and in data set [4] were above 25 µM, above 25 µM and 0.6 µM, respectively. For the same compound, the Activity result in data set [3] was “Non-toxic”.
Turning to `N[C@@H](CSCc1ccccc1)CC(=O)NC[C@H]1O[C@@H]2O[C@H]3[C@H](O)[C@@H](O)[C@@H](O[C@H]4[C@H](O)[C@@H](O)[C@@H](O[C@H]5[C@H](O)[C@@H](O)[C@@H](O[C@H]6[C@H](O)[C@@H](O)[C@@H](O[C@H]7[C@H](O)[C@@H](O)[C@@H](O[C@H]8[C@H](O)[C@@H](O)[C@@H](O[C@H]1[C@H](O)[C@H]2O)O[C@@H]8CNC(O)[C@@H](N)CSCc1ccccc1)O[C@@H]7CNC(=O)[C@@H](N)CSCc1ccccc1)O[C@@H]6CNC(=O)[C@@H](N)CSCc1ccccc1)O[C@@H]5CNC(=O)[C@@H](N)CSCc1ccccc1)O[C@@H]4CNC(=O)[C@@H](N)CSCc1ccccc1)O[C@@H]3CNC(=O)[C@@H](N)CSCc1ccccc1.O=C(O)C(F)(F)F.O=C(O)C(F)(F)F.O=C(O)C(F)(F)F.O=C(O)C(F)(F)F.O=C(O)C(F)(F)F.O=C(O)C(F)(F)F.O=C(O)C(F)(F)F` (stereo partly drawn), the IC50 is 10.6 µM in data set [1], above 25 µM in data set [2] and 0.6 µM in data set [4]. For the same compound, the Activity result in data set [3] is reported as “Non-toxic”.
Consider `CC(C)(C)OC(=O)N[C@@H](CCCN)CC(=O)NC[C@H]1O[C@@H]2O[C@H]3[C@H](O)[C@@H](O)[C@@H](O[C@H]4[C@H](O)[C@@H](O)[C@@H](O[C@H]5[C@H](O)[C@@H](O)[C@@H](O[C@H]6[C@H](O)[C@@H](O)[C@@H](O[C@H]7[C@H](O)[C@@H](O)[C@@H](O[C@H]8[C@H](O)[C@@H](O)[C@@H](O[C@H]1[C@H](O)[C@H]2O)O[C@@H]8CNC(O)[C@H](CCCN)NC(=O)OC(C)(C)C)O[C@@H]7CNC(=O)[C@H](CCCN)NC(=O)OC(C)(C)C)O[C@@H]6CNC(=O)[C@H](CCCN)NC(=O)OC(C)(C)C)O[C@@H]5CNC(=O)[C@H](CCCN)NC(=O)OC(C)(C)C)O[C@@H]4CNC(=O)[C@H](CCCN)NC(=O)OC(C)(C)C)O[C@@H]3CNC(=O)[C@H](CCCN)NC(=O)OC(C)(C)C.Cl.Cl.Cl.Cl.Cl.Cl` (stereo partly drawn), for which the result in data set [5], in data set [6], in data set [7] and in data set [8] was Active. Also, the IC50 in data set [1] worked out at 5.6 µM; in data set [2], 3.5 µM; in data set [4], 0.6 µM. Besides, the Activity entry in data set [3] is given as “Non-toxic”.
